Reference: patent publication US8134007B2, “Pyridine derivatives” (Pfizer Inc., priority 2007, dated 2012)

Key:
Format in all cases: cell-based
[1] = molecular target: T1, Human Nav1.8 (Homo sapiens, UniProt Q9Y5Y9); assay: VIPR Assay for Nav1.8 Compounds (FRET membrane potential, deltamethrin opener); settings: VIPR FRET membrane potential assay, deltamethrin opener; average of replicates; read-out: Nav1.8 IC50
T1 construct: expressed in transfected cells; host or cells: HEK293

[2] = molecular target: T2, Human Nav1.5 (Homo sapiens, UniProt Q14524); assay: Nav1.5 Assay (VIPR, HEK293 cells); settings: HEK293 cells expressing Human Nav1.5; average of replicates; read-out: Nav1.5 IC50
T2 construct: expressed in transfected cells; host or cells: HEK293
T2 sequence (Q14524 whole entry): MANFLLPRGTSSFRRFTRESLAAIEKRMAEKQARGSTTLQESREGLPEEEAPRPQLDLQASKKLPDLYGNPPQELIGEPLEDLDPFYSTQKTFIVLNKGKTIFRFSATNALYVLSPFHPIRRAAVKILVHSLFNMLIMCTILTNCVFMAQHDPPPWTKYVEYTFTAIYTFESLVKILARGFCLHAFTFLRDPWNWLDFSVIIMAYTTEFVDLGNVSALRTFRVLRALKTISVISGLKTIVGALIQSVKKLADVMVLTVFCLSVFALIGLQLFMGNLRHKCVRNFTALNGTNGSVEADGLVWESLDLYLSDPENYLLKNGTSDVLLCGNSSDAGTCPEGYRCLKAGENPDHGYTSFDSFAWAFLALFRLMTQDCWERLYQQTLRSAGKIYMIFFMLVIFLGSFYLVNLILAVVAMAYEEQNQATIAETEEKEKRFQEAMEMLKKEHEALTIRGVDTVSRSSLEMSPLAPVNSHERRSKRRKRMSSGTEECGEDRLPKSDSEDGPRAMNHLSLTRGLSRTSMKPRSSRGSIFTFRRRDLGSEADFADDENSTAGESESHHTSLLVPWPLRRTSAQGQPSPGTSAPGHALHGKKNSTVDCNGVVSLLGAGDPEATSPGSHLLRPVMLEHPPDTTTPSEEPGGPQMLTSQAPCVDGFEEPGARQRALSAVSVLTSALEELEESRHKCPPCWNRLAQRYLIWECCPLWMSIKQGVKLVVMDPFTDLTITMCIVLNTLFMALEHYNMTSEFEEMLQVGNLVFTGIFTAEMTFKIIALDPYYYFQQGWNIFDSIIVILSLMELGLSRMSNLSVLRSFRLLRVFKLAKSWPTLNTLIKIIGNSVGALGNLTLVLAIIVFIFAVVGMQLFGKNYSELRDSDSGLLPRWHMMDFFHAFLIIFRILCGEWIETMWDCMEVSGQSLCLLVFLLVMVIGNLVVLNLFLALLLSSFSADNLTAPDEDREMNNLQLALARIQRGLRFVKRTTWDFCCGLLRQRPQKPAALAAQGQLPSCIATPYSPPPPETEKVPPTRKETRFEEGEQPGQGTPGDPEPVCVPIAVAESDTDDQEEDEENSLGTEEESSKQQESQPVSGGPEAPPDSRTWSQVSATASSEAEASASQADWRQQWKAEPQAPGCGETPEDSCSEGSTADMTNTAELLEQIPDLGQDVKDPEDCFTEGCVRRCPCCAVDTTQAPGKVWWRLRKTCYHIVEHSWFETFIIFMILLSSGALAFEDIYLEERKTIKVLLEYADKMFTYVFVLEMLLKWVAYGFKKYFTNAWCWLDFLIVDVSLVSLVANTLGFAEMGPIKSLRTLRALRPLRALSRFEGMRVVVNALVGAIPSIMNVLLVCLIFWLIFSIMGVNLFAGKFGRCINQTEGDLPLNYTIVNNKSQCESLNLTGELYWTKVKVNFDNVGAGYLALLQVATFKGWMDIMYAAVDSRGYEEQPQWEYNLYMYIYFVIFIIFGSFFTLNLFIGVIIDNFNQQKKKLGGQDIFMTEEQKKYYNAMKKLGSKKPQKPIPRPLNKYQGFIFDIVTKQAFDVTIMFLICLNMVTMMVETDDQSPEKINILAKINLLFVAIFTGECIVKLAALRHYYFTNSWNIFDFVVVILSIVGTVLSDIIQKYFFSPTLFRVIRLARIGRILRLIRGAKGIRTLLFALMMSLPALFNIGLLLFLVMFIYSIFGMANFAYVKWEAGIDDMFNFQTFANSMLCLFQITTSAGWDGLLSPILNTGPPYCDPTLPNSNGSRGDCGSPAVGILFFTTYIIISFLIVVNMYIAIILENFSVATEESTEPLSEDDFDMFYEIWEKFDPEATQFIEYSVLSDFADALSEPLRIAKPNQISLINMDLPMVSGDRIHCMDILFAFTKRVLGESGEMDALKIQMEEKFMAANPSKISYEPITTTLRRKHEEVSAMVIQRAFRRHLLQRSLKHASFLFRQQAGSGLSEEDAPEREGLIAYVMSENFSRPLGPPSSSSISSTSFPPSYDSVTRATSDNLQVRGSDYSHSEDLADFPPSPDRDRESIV
Protocol: The Nav1.5 assay is performed in HEK293 cells expressing Human Nav1.5 in the same way as the Nav1.8 assay.
Where replicate experiments were conducted resulting in multiple sets of data for a test compound, the data presented represent the average value from all replicate experiments.

[3] = tested on: tetrodotoxin-sensitive voltage-gated sodium channels including NaV1.2, NaV1.3 and NaV1.7; assay: TTX-S Assay (VIPR, SHSY-5Y cell line, veratridine opener); settings: read-out: TTX-S IC50, veratridine 50 μM opener, average of replicates

T1 sequence (Q9Y5Y9 whole entry): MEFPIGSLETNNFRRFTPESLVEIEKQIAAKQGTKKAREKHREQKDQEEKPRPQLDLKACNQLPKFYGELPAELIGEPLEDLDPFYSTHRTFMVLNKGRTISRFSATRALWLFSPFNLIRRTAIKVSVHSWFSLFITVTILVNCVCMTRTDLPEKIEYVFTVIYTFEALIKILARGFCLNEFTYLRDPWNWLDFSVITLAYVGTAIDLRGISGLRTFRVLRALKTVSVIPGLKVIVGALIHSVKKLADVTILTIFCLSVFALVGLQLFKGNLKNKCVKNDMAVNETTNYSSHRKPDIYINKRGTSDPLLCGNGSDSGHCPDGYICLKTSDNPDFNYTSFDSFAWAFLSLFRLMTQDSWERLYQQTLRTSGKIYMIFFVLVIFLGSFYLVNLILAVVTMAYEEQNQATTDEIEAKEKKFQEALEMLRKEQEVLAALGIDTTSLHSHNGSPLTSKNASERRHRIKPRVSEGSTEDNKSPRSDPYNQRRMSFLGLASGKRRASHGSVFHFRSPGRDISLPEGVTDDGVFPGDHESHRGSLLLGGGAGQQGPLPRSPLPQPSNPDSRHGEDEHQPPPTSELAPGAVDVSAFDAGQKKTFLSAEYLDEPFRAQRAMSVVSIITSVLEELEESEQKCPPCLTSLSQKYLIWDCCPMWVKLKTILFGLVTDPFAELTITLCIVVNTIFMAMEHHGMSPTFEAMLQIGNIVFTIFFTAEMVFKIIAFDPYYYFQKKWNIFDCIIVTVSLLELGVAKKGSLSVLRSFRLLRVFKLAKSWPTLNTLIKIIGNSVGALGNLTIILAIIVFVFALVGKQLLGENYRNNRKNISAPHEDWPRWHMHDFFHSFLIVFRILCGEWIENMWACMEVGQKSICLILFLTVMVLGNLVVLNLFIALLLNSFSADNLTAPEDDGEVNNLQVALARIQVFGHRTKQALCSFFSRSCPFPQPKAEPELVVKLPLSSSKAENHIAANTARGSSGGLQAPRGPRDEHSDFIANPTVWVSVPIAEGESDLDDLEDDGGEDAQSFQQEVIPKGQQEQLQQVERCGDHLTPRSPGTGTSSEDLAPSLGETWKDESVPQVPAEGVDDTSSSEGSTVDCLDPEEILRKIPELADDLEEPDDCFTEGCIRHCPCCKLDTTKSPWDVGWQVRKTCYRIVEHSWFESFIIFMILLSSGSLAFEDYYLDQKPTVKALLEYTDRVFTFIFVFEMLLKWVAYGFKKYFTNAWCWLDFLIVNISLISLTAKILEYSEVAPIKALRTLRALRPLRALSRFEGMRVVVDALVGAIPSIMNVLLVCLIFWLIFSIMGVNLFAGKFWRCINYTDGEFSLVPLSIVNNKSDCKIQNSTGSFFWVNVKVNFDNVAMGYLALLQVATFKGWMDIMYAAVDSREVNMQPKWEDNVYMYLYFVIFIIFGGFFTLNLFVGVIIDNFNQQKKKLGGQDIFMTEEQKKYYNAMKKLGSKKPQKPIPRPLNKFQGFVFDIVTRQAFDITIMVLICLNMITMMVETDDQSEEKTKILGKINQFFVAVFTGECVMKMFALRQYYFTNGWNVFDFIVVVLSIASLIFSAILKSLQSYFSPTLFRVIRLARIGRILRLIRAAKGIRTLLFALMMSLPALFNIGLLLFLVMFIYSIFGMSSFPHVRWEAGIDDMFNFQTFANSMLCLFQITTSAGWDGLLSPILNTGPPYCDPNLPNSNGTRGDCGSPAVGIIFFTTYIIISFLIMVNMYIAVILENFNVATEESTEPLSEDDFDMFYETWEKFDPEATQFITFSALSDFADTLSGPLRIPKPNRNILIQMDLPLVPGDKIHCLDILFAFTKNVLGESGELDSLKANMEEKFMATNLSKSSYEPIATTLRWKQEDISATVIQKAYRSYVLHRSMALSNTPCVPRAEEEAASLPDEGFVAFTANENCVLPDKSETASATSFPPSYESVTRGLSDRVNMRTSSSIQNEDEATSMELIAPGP

Structure (SMILES)	IC50 [1] [µM]	IC50 [2] [µM]	IC50 [3] [µM]
COCc1oncc1C(=O)Nc1ccc(-c2ccccc2Cl)c(N)n1 [Example 91]	2.6	> 32	> 32
Cn1nccc1C(=O)Nc1ccc(-c2cc(Cl)ccc2Cl)c(N)n1 [Example 3, N-[6-Amino-5-(2,5-dichlorophenyl)pyridin-2-yl]-1-methyl-1H-pyrazole-5-carboxamide]	0.9	15	11
COCc1oncc1C(=O)Nc1ccc(-c2cc(F)ccc2Cl)c(N)n1 [Example 92]	0.57	19	17
Nc1nc(NC(=O)c2ccccc2)ccc1-c1ccccc1OC(F)(F)F [Example 99]	3.2	15	6.6
Cn1nncc1C(=O)Nc1ccc(-c2cc(Cl)cc(Cl)c2Cl)c(N)n1 [Example 84, N-[6-Amino-5-(2,3,5-trichlorophenyl)pyridin-2-yl]-1-methyl-1H-1,2,3-triazole-5-carboxamide]	2.4	5.3	6.5
Cn1nccc1C(=O)Nc1ccc(-c2ccccc2OCC(F)(F)F)c(N)n1 [Example 119]	2	31	26
Cn1nccc1C(=O)Nc1ccc(-c2ccccc2OC(F)F)c(N)n1 [Example 19, N-{6-Amino-5-[2-(difluoromethoxy)phenyl]pyridin-2-yl}-1-methyl-1H-pyrazole-5-carboxamide]	14	> 32	25
COc1cc(Cl)c(Cl)c(-c2ccc(NC(=O)c3cnnn3C)nc2N)c1 [Example 81, N-[6-Amino-5-(2,3-dichloro-5-methoxyphenyl)pyridin-2-yl]-1-methyl-1H-1,2,3-triazole-5-carboxamide]	1.1	2.9	7.5
CCn1nccc1C(=O)Nc1ccc(-c2ccccc2C(F)(F)F)c(N)n1 [Example 60, N-{6-Amino-5-[2-(trifluoromethyl)phenyl]pyridin-2-yl}-1-ethyl-1H-pyrazole-5-carboxamide]	4.3	20	> 32
CCn1nccc1C(=O)Nc1ccc(-c2cc(Cl)cc(OC)c2Cl)c(N)n1 [Example 62, N-[6-Amino-5-(2,5-dichloro-3-methoxyphenyl)pyridin-2-yl]-1-ethyl-1H-pyrazole-5-carboxamide]	5.1	17	11
N#Cc1ccccc1C(=O)Nc1ccc(-c2ccccc2OC(F)(F)F)c(N)n1 [Example 107, N-{6-Amino-5-[2-(trifluoromethoxy)phenyl]pyridin-2-yl}-2-cyanobenzamide]	2.5	2.5	3.1
COCc1nocc1C(=O)Nc1ccc(-c2ccccc2Cl)c(N)n1 [Example 89, N-[6-Amino-5-(2-chlorophenyl)pyridin-2-yl]-3-(methoxymethyl)isoxazole-4-carboxamide]	4.4	> 32	> 32
COc1ccc(Cl)c(-c2ccc(NC(=O)c3ccon3)nc2N)c1 [Example 73, N-[6-Amino-5-(2-chloro-5-methoxyphenyl)pyridin-2-yl]isoxazole-3-carboxamide]	4.7	> 32	18
Cn1nccc1C(=O)Nc1ccc(-c2ccccc2Cl)c(N)n1 [Example 1, N-[6-Amino-5-(2-chlorophenyl)pyridin-2-yl]-1-methyl-1H-pyrazole-5-carboxamide]	5.8	24	> 32
CCn1nccc1C(=O)Nc1ccc(-c2cc(Cl)ccc2Cl)c(N)n1 [Example 56, N-[6-Amino-5-(2,5-dichlorophenyl)pyridin-2-yl]-1-ethyl-1H-pyrazole-5-carboxamide]	2.4	17	8.1
Cc1nocc1C(=O)Nc1ccc(-c2cccc(C(F)(F)F)c2Cl)c(N)n1 [Example 124]	11	12	8.6
COCc1nocc1C(=O)Nc1ccc(-c2cc(F)ccc2Cl)c(N)n1 [Example 90, N-[6-Amino-5-(2-chloro-5-fluorophenyl)pyridin-2-yl]-3-(methoxymethyl)isoxazole-4-carboxamide]	0.55	> 32	> 32
Cc1nocc1C(=O)Nc1ccc(-c2ccccc2F)c(N)n1 [Example 33, N-[6-Amino-5-(2-fluorophenyl)pyridin-2-yl]-3-methylisoxazole-4-carboxamide]	6.5	> 32	23
Nc1nc(NC(=O)c2conc2C(F)(F)F)ccc1-c1cc(F)ccc1Cl [Example 114]	0.31	4.1	4
Cc1nocc1C(=O)Nc1ccc(-c2cc(O)ccc2Cl)c(N)n1 [Example 175, N-[6-amino-5-(2-chloro-5-hydroxyphenyl)pyridin-2-yl]-3-methylisoxazole-4-carboxamide]	23	> 32	20

Structure (SMILES)	IC50 [1] [µM]	IC50 [2] [µM]	IC50 [3] [µM]
CCn1nccc1C(=O)Nc1ccc(-c2cc(OC)cc(Cl)c2Cl)c(N)n1 [Example 61, N-[6-Amino-5-(2,3-dichloro-5-methoxyphenyl)pyridin-2-yl]-1-ethyl-1H-pyrazole-5-carboxamide]	1.3	9.7	9.7
Cn1nccc1C(=O)Nc1ccc(-c2ccc(OC(F)(F)F)cc2)c(N)n1 [Example 120]	12	10	5.2
COCc1oncc1C(=O)Nc1ccc(-c2ccccc2OC(F)(F)F)c(N)n1 [Example 93]	1.5	> 32	7.1
Cc1nocc1C(=O)Nc1ccc(-c2ccc(F)cc2)c(N)n1 [Example 40, N-[6-Amino-5-(4-fluorophenyl)pyridin-2-yl]-3-methylisoxazole-4-carboxamide]	20	31	30
Cn1nccc1C(=O)Nc1ccc(-c2cc(Cl)ccc2OC(F)(F)F)c(N)n1 [Example 16, N-{6-Amino-5-[5-chloro-2-(trifluoromethoxy)phenyl]pyridin-2-yl}-1-methyl-1H-pyrazole-5-carboxamide]	1.9	11	9.6
Cn1nccc1C(=O)Nc1ccc(-c2cc(OC(F)(F)F)ccc2F)c(N)n1 [Example 17, N-{6-Amino-5-[2-fluoro-5-(trifluoromethoxy)phenyl]pyridin-2-yl}-1-methyl-1H-pyrazole-5-carboxamide]	3.4	19	7.7
CCn1nccc1C(=O)Nc1ccc(-c2ccc(F)cc2Cl)c(N)n1 [Example 55, N-[6-Amino-5-(2-chloro-4-fluorophenyl)pyridin-2-yl]-1-ethyl-1H-pyrazole-5-carboxamide]	23	> 32	> 32
Nc1nc(NC(=O)c2cnon2)ccc1-c1cc(Cl)ccc1Cl [Example 71, N-[6-Amino-5-(2,5-dichlorophenyl)pyridin-2-yl]-1,2,5-oxadiazole-3-carboxamide]	> 32	> 32	> 32
CCn1nccc1C(=O)Nc1ccc(-c2ccccc2Cl)c(N)n1 [Example 53, N-[6-Amino-5-(2-chlorophenyl)pyridin-2-yl]-1-ethyl-1H-pyrazole-5-carboxamide]	2.3	22	15
Cc1nonc1C(=O)Nc1ccc(-c2ccc(Cl)cc2Cl)c(N)n1 [Example 49, N-[6-Amino-5-(2,4-dichlorophenyl)pyridin-2-yl]-4-methyl-1,2,5-oxadiazole-3-carboxamide]	6.1	–	12
CC(C)n1nccc1C(=O)Nc1ccc(-c2ccccc2Cl)c(N)n1 [Example 66, N-[6-Amino-5-(2-chlorophenyl)pyridin-2-yl]-1-isopropyl-1H-pyrazole-5-carboxamide]	2.4	–	11
Nc1nc(NC(=O)c2ccno2)ccc1-c1cc(Cl)ccc1Cl [Example 75, N-[6-Amino-5-(2,5-dichlorophenyl)pyridin-2-yl]isoxazole-5-carboxamide]	1.4	–	24
COc1cccc(C(=O)Nc2ccc(-c3cc(Cl)ccc3Cl)c(N)n2)c1 [Example 102]	2.3	–	5.4
Cc1oncc1C(=O)Nc1ccc(-c2cc(Cl)ccc2Cl)c(N)n1 [Example 21, N-[6-Amino-5-(2,5-dichlorophenyl)pyridin-2-yl]-5-methylisoxazole-4-carboxamide]	23	–	27
COc1ccc(Cl)c(-c2ccc(NC(=O)c3ccno3)nc2N)c1 [Example 76, N-[6-Amino-5-(2-chloro-5-methoxyphenyl)pyridin-2-yl]isoxazole-5-carboxamide]	0.86	–	6.5
Nc1nc(NC(=O)c2ccccc2)ccc1-c1cc(Cl)ccc1Cl [Example 97]	1.9	–	5.4
Nc1nc(NC(=O)c2ccc(Cl)cc2)ccc1-c1cc(Cl)ccc1Cl [Example 100]	6.3	–	4.4
Cc1nocc1C(=O)Nc1ccc(-c2cc(Cl)ccc2Cl)c(N)n1 [Example 25, N-[6-Amino-5-(2,5-dichlorophenyl)pyridin-2-yl]-3-methylisoxazole-4-carboxamide]	1.6	–	10
Nc1nc(NC(=O)c2ccon2)ccc1-c1ccccc1Cl [Example 74, N-[6-Amino-5-(2-chlorophenyl)pyridin-2-yl]isoxazole-3-carboxamide]	4.2	–	30
